The first assay has as its system Aβ42 production. The experiment in a line: Quantification of Aβ peptide in culture of neurons from rat fetus brain (Aβ ELISA). In kind it is cell-based. Particulars: Neuron, 72 h; rat primary neuronal culture (cerebral cortex, embryonic day 18 Wistar rats); medium collected three days after addition of the compound; Aβx-42 ELISA; read-out: Aβ42 production reducing effect IC50. In a few lines:
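Primary cortical neurons from embryonic day 18 Wistar rats were cultured 4 days, then exposed to compound in Neurobasal/B27 without 2-ME, final DMSO ≤1%. After three days, medium was collected and Aβx-42 measured undiluted by sandwich ELISA.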
Background: An ELISA detects its analyte on a solid surface through an enzyme-linked reagent.
As usually defined, the IC50 is the concentration at which inhibition is half-maximal. As for `NC1=N[C@@]2(c3cc(NC(=O)c4ccc(Br)o4)ccc3F)CCCC[C@H]2CS1` [Example 122], the IC50 stood at 123 nM.

Consider `N#Cc1cnc(C(=O)Nc2ccc(F)c([C@]34CCC[C@H]3CSC(N)=N4)c2)nc1` [Example 126], for which the half-inhibitory concentration (IC50) worked out at 70 nM.

For `CNC(=O)c1ccc(C(=O)Nc2ccc(F)c([C@]34CCC[C@H]3CSC(N)=N4)c2)nc1` [Example 127], the IC50 stood at 214 nM.

As for `CCOC(=O)c1cnc(C(=O)Nc2ccc(F)c([C@]34CCC[C@H]3CSC(N)=N4)c2)nc1` [Example 128], the IC50 was found to be 231 nM.

Regarding `NC(=O)c1ccc(C(=O)Nc2ccc(F)c([C@]34CCC[C@H]3CSC(N)=N4)c2)nc1` [Example 129], the IC50 came to 65 nM.

On to `NC1=N[C@@]2(c3cc(NC(=O)c4ccc(C5CC5)cn4)ccc3F)CCC[C@H]2CS1` [Example 134], for which the IC50 came out at 86 nM.

For the compound `NC1=N[C@@]2(c3cc(NC(=O)c4ccc5cnccc5n4)ccc3F)CCC[C@H]2CS1` [Example 138], the 50% inhibitory concentration (IC50) came to 63 nM.

With `NC1=N[C@@]2(c3cc(NC(=O)c4ccc5ccccc5n4)ccc3F)CCC[C@H]2CS1` [Example 139], the half-maximal inhibitory concentration (IC50) amounted to 169 nM.

`NC1=N[C@@]2(c3cc(NC(=O)c4cnc5ccccc5n4)ccc3F)CCC[C@H]2CS1` [Example 140]: the IC50 came to 67 nM.

On to `C[C@H]1OC[C@H]2CSC(N)=N[C@]21c1cc(NC(=O)c2ccc(C#N)cn2)ccc1F` [Example 151], for which the IC50 is 167 nM.

Consider `N#Cc1ccc(C(=O)Nc2ccc(F)c([C@]34CO[C@H](CF)[C@H]3CSC(N)=N4)c2)nc1` [Example 164, N-[3-((4aS,5S,7aS)-2-amino-5-fluoromethyl-4a,5-dihydro-4H-furo[3,4-d][1,3]thiazin-7a-yl)-4-fluorophenyl]-5-cyanopyridine-2-carboxamide], for which the IC50 came to 1 nM.

On to `Cc1cnc(C(=O)Nc2ccc(F)c([C@]34CCC[C@H]3CSC(N)=N4)c2)cn1` [Example 195], for which the IC50 came to 68 nM.

Take `NC1=N[C@@]2(c3cc(NC(=O)c4ccc(OCc5ccccc5)cn4)ccc3F)CCC[C@H]2CS1` [Example 196]: the IC50 amounted to 977 nM.

As for `Cc1cc(Cl)ccc1C(=O)Nc1ccc(F)c([C@]23CCC[C@H]2CSC(N)=N3)c1` [Example 197], the IC50 worked out at 220 nM.

Take `NC1=N[C@@]2(c3cc(NC(=O)c4ncccn4)ccc3F)CCC[C@H]2CS1` [Example 198]: the IC50 turned out to be 129 nM.

In the case of `NC1=N[C@@]2(c3cc(NC(=O)c4ncc(Br)cn4)ccc3F)CCOC[C@H]2CS1` [Example 199], the IC50 stood at 12 nM.

With `NC1=N[C@@]2(c3cc(NC(=O)c4ncc(F)cc4F)ccc3F)CCOC[C@H]2CS1` [Example 200], the IC50 was determined as 44 nM.

With `CO[C@H]1CC[C@]2(c3cc(NC(=O)c4cnc(C(F)F)cn4)ccc3F)N=C(N)SC[C@@H]2C1` [Example 205], the IC50 is 25 nM.

Turning to `NC1=N[C@@]2(c3cc(NC(=O)c4nc5ccccc5s4)ccc3F)CCCC[C@H]2CS1` [Example 223], the IC50 was determined as 316 nM.

With `NC1=N[C@@]2(c3cc(NC(=O)c4cnccn4)ccc3F)CCCC[C@H]2CS1` [Example 224], the IC50 is 271 nM.

In the case of `Cc1ccc(C(=O)Nc2ccc(F)c([C@]34CCCC[C@H]3CSC(N)=N4)c2)nc1` [Example 225], the IC50 was 198 nM.

For the compound `NC1=N[C@@]2(c3cccc(-c4cncnc4)c3)CN(c3cnccn3)C[C@H]2CS1` [Example 230], the IC50 is 202 nM.

Turning to `NC1=N[C@@]2(c3cc(NC(=O)c4ccncn4)ccc3F)CCC[C@H]2CS1` [Example 233], the IC50 amounted to 86 nM.

On to `Cc1cccnc1C(=O)Nc1ccc(F)c([C@]23CCC[C@H]2CSC(N)=N3)c1` [Example 236], for which the IC50 is 59 nM.

Take `CC(=O)c1ccc(C(=O)Nc2ccc(F)c([C@]34CCC[C@H]3CSC(N)=N4)c2)nc1` [Example 237]: the IC50 stood at 80 nM.

In the case of `COc1cccnc1C(=O)Nc1ccc(F)c([C@]23CCC[C@H]2CSC(N)=N3)c1` [Example 238], the IC50 is 350 nM.

Turning to `Cn1cc(-c2ccc(C(=O)Nc3ccc(F)c([C@]45CCC[C@H]4CSC(N)=N5)c3)nc2)cn1` [Example 239], the IC50 came out at 238 nM.

With `NC1=N[C@@]2(c3cc(NC(=O)c4ncccc4F)ccc3F)CCCCC[C@H]2CS1` [Example 251], the IC50 was 120 nM.

In the case of `NC1=N[C@@]2(c3cc(NC(=O)c4ncccc4C(F)(F)F)ccc3F)CCCCC[C@H]2CS1` [Example 252], the IC50 was determined as 187 nM.

For `NC1=N[C@@]2(c3cc(NC(=O)c4ncccc4Br)ccc3F)CCCCC[C@H]2CS1` [Example 253], the IC50 was 171 nM.

Regarding `NC1=N[C@@]2(c3cc(NC(=O)c4ccc(Br)cn4)ccc3F)CCCC[C@H]2CS1` [Example 254], the concentration for half-maximal inhibition (IC50) is 43 nM.

For the compound `NC1=N[C@@]2(c3cc(NC(=O)c4ccccn4)ccc3F)CCCC[C@H]2CS1` [Example 255], the IC50 was found to be 158 nM.

Regarding `NC1=N[C@@]2(c3cc(NC(=O)c4ncccc4Cl)ccc3F)CCCC[C@H]2CS1` [Example 258], the IC50 came to 376 nM.

Regarding `NC1=N[C@@]2(c3cc(NC(=O)c4ncccc4F)ccc3F)CCCC[C@H]2CS1` [Example 259], the IC50 is 372 nM.

As to `NC1=N[C@@]2(c3cc(NC(=O)c4ncccc4Br)ccc3F)CCCC[C@H]2CS1` [Example 260], the IC50 is 170 nM.

For `NC1=N[C@@]2(c3cc(NC(=O)c4ncccc4C(F)(F)F)ccc3F)CCCC[C@H]2CS1` [Example 261], the IC50 worked out at 277 nM.

Still in this assay, the particulars now being: rat primary neuronal culture (cerebral cortex, embryonic day 18 Wistar rats); medium collected three days after addition of the compound; Aβx-42 ELISA; read-out: Aβ42 production reducing effect IC50.
Take “N-[3-((4aR*,9aS*)-2- amino-4a,5,6,7,8,9-hexahydro-4H- cyclohepta[d][1,3]thiaziin-9a-yl)-4- fluorophenyl]-6-chloropyridine-2- carboxamide [Example 248]”: the IC50 amounted to 16 nM.

For the origin of these results see US20100317850A1 (priority 2008, published 2010).
